Test results: US20050070591A1, “Indole derivative” (priority 2001, published 2005)
pIC50: −log10 of the molar value. “And” between values parts separate entries of the source, which are not always exact repeats. Equal entries are not always repeated.

Assays:
[1] = test system: human epidermoid carcinoma cells A431; test: Abrogating action for the cell cycle accumulation in G2 and S phases (flow cytometry DNA histogram); assay type: cell-based; conditions: cisplatin 20 μmol/L
Description: Each 5 mL of human epidermoid carcinoma cells A431 (hereinafter, referred to as A431 cells) prepared in 6×10^4 cells/mL in a DMEM medium (manufactured by Nissui; hereinafter, referred to as the medium A) containing 10% fetal bovine serum were disposed in a 10-cm laboratory dish (manufactured by Falcon; product no. 3303). The plate was incubated in a carbon dioxide gas incubator at 37° C. for 24 hours, then cisplatin (manufactured by Sigma) where its final concentration in the medium A was made 20 μmol/L was added and the mixture was incubated at 37° C. for 1 hour in a carbon dioxide gas incubator.
After removing the medium, the cell was washed with PBS(−) [phosphate-buffered physiological saline solution (containing no calcium ion); manufactured by Dainippon Pharmaceutical, then the medium A was added thereto, the mixture was incubated at 37° C. for 15 hours in a carbon dioxide gas incubator, a compound which was appropriately diluted with the medium A was added thereto and the mixture was incubated again in a carbon dioxide gas incubator at 37° C. for 8 hours. After removal of the supernatant from the culture, the cell was washed with PBS(−), exfoliated with a 0.25% aqueous solution of trypsin (0.25% Trypsin manufactured by Gibco BRL) and a 0.02% aqueous solution of ethylenediaminetetraacetic acid (manufactured by Wako Pure Chemicals), fixed with a 70% aqueous solution of ethanol so as to make the cell concentration 10^6 cells/mL and preserved in a cool chamber of 4° C. The fixed cells were subjected to a centrifugal separation to remove ethanol, washed with PBS(−) and treated with a 0.25 mg/mL ribonuclease A type 1-A (manufactured by Sigma) PBS(−) solution containing 0.1% Nonidet P-40 (manufactured by Nakarai Kagaku Yakuhin) at 37° C. for 30 minutes and a 0.1% solution of propidium iodide (manufactured by Sigma) in NP-40/PBS(−) so as to make the final concentration 50 μg/mL followed by staining in ice for not shorter than 20 minutes.
A DNA histogram was measured using an EPICS ELITE Flow Cytometer (manufactured by Coulter) and distribution of cell cycle was analyzed using a MultiCycle Program (manufactured by Phonenix Flow Systems).

human CDK2-cyclin E = biological target: T1, human CDK2-cyclin E (Homo sapiens, UniProt P24941); test: CDK2 inhibitory activity (incorporation of 32P from [γ-32P]-ATP into GST-RB); assay type: biochemical; conditions: 50 μmol/L ATP, 30° C., 5 minutes; read-out: Enzyme Inhibitory Activity, IC50
T1 construct: made in house; host or cells: Spodoptera frugiperda (Sf-9) insect cells, baculovirus
Description: A crude extract of cells of an insect, Spodoptera frugiperda (Sf-9) infected with human CDK2-cyclin E-expressing baculovirus was subjected to an affinity purification to give an enzyme solution. The enzyme solution (4 μL), 20 μL of reaction solution containing a DMSO solution in which a test compound was dissolved (final concentration: 0.1%) and 5 μL of a substrate solution [50 μmol/L of ATP (final concentration), 2 μCi of [γ-^32P]-ATP and 500 ng of […] (GST-RB)] were incubated at 30° C. for 5 minutes. A sodium dodecylsulfate-polyacrylamide gel electrophoresis (SDS-PAGE) was carried out, then incorporation of radiation activity from [γ-^32P]-ATP into GST-RB was determined using an Image Analyzer BAS 200 (Fuji Photo-Film) and an enzyme inhibition was calculated. CDK2 inhibitory activity (I) at various concentrations of a test compound was calculated by the following formula using radiation activity (C) of the group to which no test compound was added, radiation activity (S) of the group to which a test compound was added and radiation activity (B) of a background (a sample where the reaction time was 0 hour) and a concentration by which CDK2 activity was inhibited to an extent of 50% by each test compound was defined as IC50. I(%)=[1−(S−B)/(C−B)]×100

U2OS cells = test: Cell growth inhibition against human osteosarcoma cells U2OS; assay type: cell-based; conditions: 72 hours, read-out: Cell Growth Inhibitory Activity, IC50, U2OS
Description: (§1) Each of Saos-2 and U2OS cells was made into 1.0×10^4 cells/mL using a Roswell Park Memorial Institute's medium (RPMI) 1640 (manufactured by Nissui) containing 10% of fetal bovine serum and penicillin/streptomycin and a Dulbecco's modified Eagle medium (DME) (manufactured by Nissui) containing 10% fetal bovine serum and penicillin/streptomycin each. Each of the prepared cells was dispensed in an amount of 0.1 mL per well to a 96-well microtiter plate (#167008 manufactured by Nunk). Each plate was incubated in a carbon dioxide gas incubator at 37° C. for 20 hours. A solution of a test compound in DMSO prepared into 10 mmol/L was diluted with each medium for incubation and each 0.05 mL thereof was added to each well, subjected to stepwise dilution by means of a pipetting operation in the plate and incubated at 37° C. for 72 hours in a carbon dioxide gas incubator.
(§2) A supernatant was removed from cell culture, each well was washed with 0.1 mL of a phosphate buffer (PBS buffer) twice and 0.1 mL of the above medium was added to each well. A cell proliferation kit II (manufactured by Boehringer Mannheim) was used for the measurement of cell numbers in each well. A reagent for color reaction was added, incubation was carried out in a carbon dioxide gas incubator at 37° C. for 3 hours and absorbance at 490 nm and 650 nm was measured in a microplate reader (M-SP max 250; manufactured by Wako Pure Chemicals). A value where absorbance at 650 nm was deducted from that at 490 nm (difference absorbance) was calculated for each well and the difference absorbance obtained from non-treated cells and cells which were treated with a test compound of a known concentration was compared whereupon a concentration of the test compound which inhibited the cell growth to an extent of 50% was calculated and expressed as IC50.

Saos-2 cells = test: Cell growth inhibition against human osteosarcoma cells Saos-2; assay type: cell-based; conditions: Saos-2, 72 hours, read-out: Cell Growth Inhibitory Activity, IC50, Saos-2
Description: as §1, §2

SMILES	pIC50 (human CDK2-cyclin E)	pIC50 (U2OS cells)	pIC50 (Saos-2 cells)	also measured
N.N.[Cl][Pt][Cl] [Cisplatin, cisplatin]				Cell Cycle Distribution (%) G1 [1]: 2.2% and 10.4%; Cell Cycle Distribution (%) G2M [1]: 17.2% and 22.4%; Cell Cycle Distribution (%) S [1]: 80.6% and 67.2%; Change of cell cycle distribution as compared with untreated groups (induction of the accumulation in G2 or S phase) [1]: increase in S phase, increase in G2 and M phase and decrease in G1 phase
CCCCC(=O)Oc1cccc(-c2cc3c(cc(C=O)n3C)c3c2C(=O)NC3=O)c1 [Compound 12]	5.30			
Cn1c2ccccc2c2c3c(c(CBr)cc21)C(=O)NC3=O [Compound 36]	5.64			
C=CCn1c2ccccc2c2c3c(c(N)cc21)C(=O)NC3=O [Compound 45]	5.31			
C=CCn1c2ccccc2c2c3c(c(CO)cc21)C(=O)NC3=O [Compound 46]	5.48			
C=CCn1c2ccccc2c2c3c(c(COC4CCCCO4)cc21)C(=O)NC3=O (centres unmarked) [Compound 47]	5.40			
C=CCn1c2ccccc2c2c3c(c(CN=[N+]=[N-])cc21)C(=O)NC3=O [Compound 48]	6.37			
C=CCn1c2ccccc2c2c3c(c(C=O)cc21)C(=O)NC3=O [Compound 50]	6.18			
C=CCn1c2ccccc2c2c3c(c(C=NNCCO)cc21)C(=O)NC3=O [Compound 54]	5.70			
CN(C)CCCn1c2ccccc2c2c3c(c(C=O)cc21)C(=O)NC3=O [Compound 64]	5.15	5.80	5.89	
CN(C)CCCn1c2ccccc2c2c3c(c(C=NO)cc21)C(=O)NC3=O [Compound 65]	5.55	6.30	6.17	
CC(Cn1c2ccccc2c2c3c(c(C=O)cc21)C(=O)NC3=O)N(C)C (centres unmarked) [Compound 66]	6.60	5.68	5.92	
CC(Cn1c2ccccc2c2c3c(c(C=NO)cc21)C(=O)NC3=O)N(C)C (centres unmarked) [Compound 68]	6.70	5.92	6.03	
CC(Cn1c2ccccc2c2c3c(c(C=NN)cc21)C(=O)NC3=O)N(C)C (centres unmarked) [Compound 69]	6.02	6.17	6.52	
COC(=O)c1ccc(Cn2c3ccccc3c3c4c(c(COC5CCCCO5)cc32)C(=O)NC4=O)cc1 (centres unmarked) [Compound 79]	5.70			
O=C1NC(=O)c2c1c(COC1CCCCO1)cc1c2c2ccccc2n1Cc1ccc2ccccc2c1 (centres unmarked) [Compound 80]	5.62			
